Where “and” joins values, the source holds several entries; their conditions need not be identical. Identical values can stand only once. Counter-ions that a name gives are not always drawn.
Tested on: ATF4 translation (ATF4 pathway), SH-SY5Y-ATF4-NanoLuc cells
Test: ATF4 cell based assay (ATF4 5'-UTR NanoLuc luciferase reporter, Thapsigargin induced cellular stress)
Details: SH-SY5Y-ATF4-NanoLuc cells challenged with Thapsigargin for 14-18 hours; average of two or more experimental runs; hydrochloride; read-out: average ATF4 pathway inhibitory activity (IC50)
Text: The ATF4 reporter assay measures the effect of Thapsigargin induced cellular stress on ATF4 expression. For this reporter assay, a stable cell line was created by transfecting SH-SY5Y cells with a plasmid containing the NanoLuc® luciferase gene fused to the 5′-UTR of ATF4, under the control of the CMV promoter. The ATF4 5′-UTR contains two open reading frames which mediate the cellular stress-dependent translation of the reporter gene. Clones stably expressing the reporter construct were isolated and selected based on the luminescence response to thapsigargin and inhibition of this signal by test compounds. Briefly, SH-SY5Y-ATF4-NanoLuc cells were challenged with Thapsigargin for 14-18 hours to determine the stress effect with or without test compounds.
Cells were propagated in growth media consisting of 90% DMEM F12 (InVitrogen #11320-033), 10% Fetal Bovine Serum (Gibco #10438-026), 5 mM Glutamax (Gibco #35050-061), 5 mM Hepes, (Gibco #15630-080), and 0.5 mg/ml Geneticin (Gibco #10131-027). Cells were prepared for the assay by removing all media from cells, washing the plated cells with phosphate buffered saline, and detached by adding a solution comprised of 10% Tryple express solution (InVitrogen12604-021) and 90% enzyme-free cell dissociation buffer HANKS base (Gibco 13150-016). The trypsin was deactivated by adding assay media comprised of 90% phenol-red free DMEM F12 (InVitrogen, 11039), 10% Fetal Bovine Serum (Gibco #10438-026), (5 mM Glutamax (Gibco #35050-061), 5 mM Hepes, (Gibco #15630-080), and 0.5 mg/ml Geneticin (Gibco #10131-027). Suspended cells were spun down at 300 g for 5 min, the supernatant was removed and the cell pellet was suspended in warm media (30-37° C.) comprised as above at (1e6 cell/ml).
Assay plates were prepared by adding 250 nL of compound stock solution in 100% DMSO to each well, followed by dispensing 20 microliters/well cell suspension to deliver 15-20 k cell/well. Cells were incubated for 1 hour at 37° C. Then, 5 μL of 1.5 μM or 1 μM of Thapsigargin (final concentration: 200-300 nM) was added to each well of cells. Assay plates containing cells were incubated for 14-18 hours at 37° C.
The measurement of luciferase produced by the ATF4 constructs was measured as follows. Aliquots of the Nano-Glo reagent (Nano-Glo® Luciferase Assay Substrate, Promega, N113, Nano-Glo® Luciferase Assay Buffer, Promega, N112 (parts of Nano-Glo® Luciferase Assay System, N1150) were brought to room temperature, the substrate and buffer were mixed according to manufacturer's instructions. The cell plates were equilibrated to room temperature. 25 microliters/well of the mixed Nano-Glo reagent were dispensed into assay wells and pulse spun to settle contents and the plate was sealed with film. The plates were incubated at room temperature for 1 hour before detecting luminescence on an Envision plate reader.
Compounds of the invention are tested for activity against ATF4 translation in the above assay.

| SMILES | IC50 [µM] |
| --- | --- |
| O=C(COc1ccc(Cl)nc1)N[C@H]1[C@@H]2CN(CCCOc3ccc(Cl)cc3)C[C@@H]21 [Example 71, N-((1R,5S,6s)-3-(3-(4-chlorophenoxy)propyl)-3-azabicyclo[3.1.0]hexan-6-yl)-2-((6-chloropyridin-3-yl)oxy)acetamide hydrochloride] | 0.137 |

Same assay, conditions: SH-SY5Y-ATF4-NanoLuc cells challenged with Thapsigargin for 14-18 hours; average of two or more experimental runs; read-out: average ATF4 pathway inhibitory activity (IC50)

| SMILES | IC50 |
| --- | --- |
| O=C(COc1ccc(Cl)cc1)N[C@H]1[C@@H]2CN(CCCOc3ccc(Cl)cn3)C[C@@H]21 [Example 53, 2-(4-chlorophenoxy)-N-((1R,5S,6s)-3-(3-((5-chloropyridin-2-yl)oxy)propyl)-3-azabicyclo[3.1.0]hexan-6-yl)acetamide] | 0.101 to 1 µM |
| O=C(COc1ccc(Cl)c(F)c1)NCC1CCN(CCCOc2ccc(Cl)cc2)C1 (centres unmarked) [Example 55, 2-(4-chloro-3-fluorophenoxy)-N-((1-(3-(4-chlorophenoxy)propyl)pyrrolidin-3-yl)methyl)acetamide] | < 0.1 µM |
| O=C(COc1ccc(Cl)cn1)NCC1CCN(CCCOc2ccc(Cl)cc2)C1 (centres unmarked) [Example 56, N-((1-(3-(4-chlorophenoxy)propyl)pyrrolidin-3-yl)methyl)-2-((5-chloropyridin-2-yl)oxy)acetamide] | 0.101 to 1 µM |
| Cc1cc(OCCCN2CCC(CNC(=O)COc3ccc(Cl)cc3)C2)ccc1Cl (centres unmarked) [Example 57, N-((1-(3-(4-chloro-3-methylphenoxy)propyl)pyrrolidin-3-yl)methyl)-2-(4-chlorophenoxy)acetamide] | < 0.1 µM |
| CC1C[C@H](CNC(=O)COc2ccc(Cl)cc2)CN1CCCOc1ccc(Cl)cc1 (stereo partly drawn) [Example 58, 2-(4-chlorophenoxy)-N-(((3R)-1-(3-(4-chlorophenoxy)propyl)-5-methylpyrrolidin-3-yl)methyl)acetamide] | 0.101 to 1 µM |
| O=C(COc1ccc(Cl)cc1)NCC1(F)CCN(CCCOc2ccc(Cl)cc2)C1 (centres unmarked) [Example 60, 2-(4-chlorophenoxy)-N-((1-(3-(4-chlorophenoxy)propyl)-3-fluoropyrrolidin-3-yl)methyl)acetamide] | 0.101 to 1 µM |
| O=C(COc1ccc(Cl)cc1)NCC1CCN(CCCOc2ccc(Cl)c(Cl)c2)C1 (centres unmarked) [Example 61, 2-(4-chlorophenoxy)-N-((1-(3-(3,4-dichlorophenoxy)propyl)pyrrolidin-3-yl)methyl)acetamide] | < 0.1 µM |
| O=C(COc1ccc(Cl)cc1)NCC1CCN(CCCOc2ccc(Cl)cc2F)C1 (centres unmarked) [Example 62, N-((1-(3-(4-chloro-2-fluorophenoxy)propyl)pyrrolidin-3-yl)methyl)-2-(4-chlorophenoxy)acetamide] | < 0.1 µM |
| O=C(COc1ccc(Cl)cc1)NCC1CCN(CCCOc2ccc(C(F)(F)F)cc2)C1 (centres unmarked) [Example 63, 2-(4-chlorophenoxy)-N-((1-(3-(4-(trifluoromethyl)phenoxy)propyl)pyrrolidin-3-yl)methyl)acetamide] | 0.101 to 1 µM |
| O=C(COc1ccc(Cl)cc1)NCC1CCN(CCCOc2ccc(Cl)c(F)c2)C1 (centres unmarked) [Example 64, N-((1-(3-(4-chloro-3-fluorophenoxy)propyl)pyrrolidin-3-yl)methyl)-2-(4-chlorophenoxy)acetamide] | 0.101 to 1 µM and 0.127 µM |
| O=C(COc1ccc(Cl)cc1)N[C@H]1[C@@H]2CN(CCCOc3ccc(Cl)nc3)C[C@@H]21 [Example 65, 2-(4-chlorophenoxy)-N-((1R,5S,6s)-3-(3-((6-chloropyridin-3-yl)oxy)propyl)-3-azabicyclo[3.1.0]hexan-6-yl)acetamide] | 0.101 to 1 µM |
| O=C(COc1ccc(Cl)cc1)NCC1CCN(CCCOc2ccc(Cl)cc2Cl)C1 (centres unmarked) [Example 66, 2-(4-chlorophenoxy)-N-((1-(3-(2,4-dichlorophenoxy)propyl)pyrrolidin-3-yl)methyl)acetamide] | 0.101 to 1 µM |
| Cc1cc(Cl)ccc1OCCCN1CCC(CNC(=O)COc2ccc(Cl)cc2)C1 (centres unmarked) [Example 67, N-((1-(3-(4-chloro-2-methylphenoxy)propyl)pyrrolidin-3-yl)methyl)-2-(4-chlorophenoxy)acetamide] | 0.101 to 1 µM |
| O=C(COc1ccc(Cl)cc1)NCC1CCN(CCCOc2ccc(Cl)cn2)C1 (centres unmarked) [Example 69, 2-(4-chlorophenoxy)-N-((1-(3-((5-chloropyridin-2-yl)oxy)propyl)pyrrolidin-3-yl)methyl)acetamide] | < 0.1 µM |
| O=C(COc1ccc(Cl)cc1)NC[C@@H]1CCN(CCCOc2ccc(Cl)cc2)C1 [Example 70, (S)-2-(4-chlorophenoxy)-N-((1-(3-(4-chlorophenoxy)propyl)pyrrolidin-3-yl)methyl)acetamide] | 0.101 to 1 µM |
| O=C(COc1ccc(Cl)c(C(F)(F)F)c1)NCC1CCN(CCCOc2ccc(Cl)cc2)C1 (centres unmarked) [Example 72, 2-(4-chloro-3-(trifluoromethyl)phenoxy)-N-((1-(3-(4-chlorophenoxy)propyl)pyrrolidin-3-yl)methyl)acetamide] | < 0.1 µM |
| O=C(COc1ccc(Cl)cc1)NC[C@H]1CCN(CCCOc2ccc(Cl)cc2)C1 [Example 73, (R)-2-(4-chlorophenoxy)-N-((1-(3-(4-chlorophenoxy)propyl)pyrrolidin-3-yl)methyl)acetamide] | < 0.1 µM |
| O=C(COc1ccc(Cl)cc1)NCC1CCN(CCCOc2ccc(Cl)cc2)C1=O (centres unmarked) [Example 75, 2-(4-chlorophenoxy)-N-((1-(3-(4-chlorophenoxy)propyl)-2-oxopyrrolidin-3-yl)methyl)acetamide] | 0.101 to 1 µM |
| O=C(COc1ccc(Cl)cc1)N[C@H]1[C@@H]2CN(CC(O)COc3ccc(Cl)cc3)C[C@@H]21 (stereo partly drawn) [Example 76, 2-(4-chlorophenoxy)-N-((1R,5S,6s)-3-(3-(4-chlorophenoxy)-2-hydroxypropyl)-3-azabicyclo[3.1.0]hexan-6-yl)acetamide] | < 0.1 µM |
| O=C(COc1ccc(Cl)cc1)NCC1CCN(CC(O)COc2ccc(Cl)cc2)C1 (centres unmarked) [Example 77, 2-(4-chlorophenoxy)-N-((1-(3-(4-chlorophenoxy)-2-hydroxypropyl)pyrrolidin-3-yl)methyl)acetamide] | < 0.1 µM and 0.065 µM |
| O=C(COc1ccc(Cl)cc1)N[C@H]1[C@@H]2CN(CC(F)COc3ccc(Cl)cc3)C[C@@H]21 (stereo partly drawn) [Example 78, 2-(4-chlorophenoxy)-N-((1R,5S,6s)-3-(3-(4-chlorophenoxy)-2-fluoropropyl)-3-azabicyclo[3.1.0]hexan-6-yl)acetamide] | < 0.1 µM |
| CN(Cc1ccc(Cl)cc1)C(=O)N1CCC(CNC(=O)COc2ccc(Cl)cc2)C1 (centres unmarked) [Example 79, N-(4-chlorobenzyl)-3-((2-(4-chlorophenoxy)acetamido)methyl)-N-methylpyrrolidine-1-carboxamide] | < 0.1 µM |
| O=C(COc1ccc(Cl)cc1)NCC1CN(CCCOc2ccc(Cl)cc2)CC1O (centres unmarked) [Example 80, 2-(4-chlorophenoxy)-N-((1-(3-(4-chlorophenoxy)propyl)-4-hydroxypyrrolidin-3-yl)methyl)acetamide] | < 0.1 µM |
| O=C(COc1ccc(Cl)cc1)NCC1CC(=O)N(CCCOc2ccc(Cl)cc2)C1 (centres unmarked) [Example 81, 2-(4-chlorophenoxy)-N-((1-(3-(4-chlorophenoxy)propyl)-5-oxopyrrolidin-3-yl)methyl)acetamide] | 0.101 to 1 µM |
| O=C(COc1ccc(Cl)cc1)NC1[C@H]2CN(C(CCOc3ccc(Cl)cc3)C(=O)O)C[C@@H]12 (stereo partly drawn) [Example 82, 4-(4-chlorophenoxy)-2-((1R,5S)-6-(2-(4-chlorophenoxy)acetamido)-3-azabicyclo[3.1.0]hexan-3-yl)butanoic acid hydrochloride] | < 0.1 µM |
